Calls of active or inactive are those of the source.
Tests used:
[1] = molecular target: T1, Replicative DNA helicase DnaB (Mycobacterium tuberculosis, UniProt P9WMR3); experiment: DnaB intein splicing inhibitors, dose response, biochemical, cell-free fluorescence (AID 449749); type: functional
T1 sequence (P9WMR3 whole entry): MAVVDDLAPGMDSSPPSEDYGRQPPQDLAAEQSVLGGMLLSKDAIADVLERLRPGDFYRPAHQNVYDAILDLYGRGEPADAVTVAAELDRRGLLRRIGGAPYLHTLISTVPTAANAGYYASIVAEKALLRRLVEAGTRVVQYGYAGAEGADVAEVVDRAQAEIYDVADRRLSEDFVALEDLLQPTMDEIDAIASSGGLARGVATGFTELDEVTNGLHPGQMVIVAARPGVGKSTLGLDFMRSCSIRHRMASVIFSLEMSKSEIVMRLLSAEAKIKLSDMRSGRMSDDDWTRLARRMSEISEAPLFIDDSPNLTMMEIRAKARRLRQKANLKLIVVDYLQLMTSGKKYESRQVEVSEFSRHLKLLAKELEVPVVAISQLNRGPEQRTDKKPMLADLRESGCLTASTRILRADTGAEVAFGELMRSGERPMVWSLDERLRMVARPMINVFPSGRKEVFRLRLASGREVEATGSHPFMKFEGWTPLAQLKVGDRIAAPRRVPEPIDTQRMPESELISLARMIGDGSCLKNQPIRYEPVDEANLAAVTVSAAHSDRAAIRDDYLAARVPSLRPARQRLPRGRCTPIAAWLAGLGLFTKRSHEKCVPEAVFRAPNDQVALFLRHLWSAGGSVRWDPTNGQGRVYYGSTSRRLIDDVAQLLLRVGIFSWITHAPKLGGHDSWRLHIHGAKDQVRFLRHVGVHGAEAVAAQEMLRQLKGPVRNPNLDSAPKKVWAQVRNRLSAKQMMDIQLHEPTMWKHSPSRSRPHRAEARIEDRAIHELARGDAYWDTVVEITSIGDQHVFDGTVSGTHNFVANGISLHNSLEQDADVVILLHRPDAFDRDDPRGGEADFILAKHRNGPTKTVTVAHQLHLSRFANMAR

[2] = molecular target: Nonstructural protein 1 (Influenza A virus, UniProt Q194T2); type: functional, Influenza A virus (A/California/07/2009(H1N1))
[3] = molecular target: cAMP-dependent protein kinase catalytic subunit PRKX (Homo sapiens, UniProt P51817); type: functional
[4] = molecular target: Calcium/calmodulin-dependent protein kinase type II subunit beta (Homo sapiens, UniProt Q13554); type: functional
[5] = molecular target: Proto-oncogene tyrosine-protein kinase Src (Homo sapiens, UniProt P12931); type: functional;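 also: SRC entry within a kinome-wide kinase profiling panel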
[6] = molecular target: Mitogen-activated protein kinase 8 (Homo sapiens, UniProt P45983); type: functional;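 also: value comes from one member of a kinome-wide kinase profiling panel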
[7] = molecular target: Maternal embryonic leucine zipper kinase (Homo sapiens, UniProt Q14680); type: functional
[8] = molecular target: Serine/threonine-protein kinase Chk2 (Homo sapiens, UniProt O96017); type: functional;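 also: CHEK2 entry within a kinome-wide screening panel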
[9] = molecular target: Interleukin-1 receptor-associated kinase 1 (Homo sapiens, UniProt P51617); type: functional;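 also: IRAK1 tested as one member of a kinome panel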
[10] = molecular target: Protein kinase C iota type (Homo sapiens, UniProt P41743); type: functional;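 also: measured within a kinome-wide kinase panel, PRKCI as panel member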
[11] = molecular target: Cyclin-dependent kinase 19 (Homo sapiens, UniProt Q9BWU1); experiment: Navigating the Kinome. Panel member name: CDC2L6; type: functional
[12] = molecular target: Homeodomain-interacting protein kinase 4 (Homo sapiens, UniProt Q8NE63); type: functional
[13] = molecular target: LIM domain kinase 1 (Homo sapiens, UniProt P53667); experiment: Navigating the Kinome. Panel member name: LIMK1; type: functional
[14] = molecular target: STE20-like serine/threonine-protein kinase (Homo sapiens, UniProt Q9H2G2); type: functional
[15] = molecular target: Cyclin-dependent kinase 9 (Homo sapiens, UniProt P50750); type: functional;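 also: value from the CDK9 entry of a kinome-spanning kinase panel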
[16] = molecular target: Tyrosine-protein kinase receptor UFO (Homo sapiens, UniProt P30530); type: functional
[17] = molecular target: T2, Aurora kinase A (Homo sapiens, UniProt O14965); type: functional;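 also: value from the Navigating the Kinome kinase panel profiling, panel entry STK6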
T2 sequence (O14965 whole entry): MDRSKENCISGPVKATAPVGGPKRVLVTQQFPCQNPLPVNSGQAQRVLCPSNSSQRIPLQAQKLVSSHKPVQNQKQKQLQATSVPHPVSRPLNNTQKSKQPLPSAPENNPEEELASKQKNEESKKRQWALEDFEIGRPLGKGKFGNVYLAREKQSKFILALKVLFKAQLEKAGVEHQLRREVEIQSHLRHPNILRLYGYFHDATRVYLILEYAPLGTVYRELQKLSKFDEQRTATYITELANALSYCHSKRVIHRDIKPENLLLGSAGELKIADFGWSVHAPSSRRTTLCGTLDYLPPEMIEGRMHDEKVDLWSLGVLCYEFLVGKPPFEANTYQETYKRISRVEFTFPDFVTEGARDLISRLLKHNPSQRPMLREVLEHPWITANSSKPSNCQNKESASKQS

[18] = molecular target: Serine/threonine-protein kinase N2 (Homo sapiens, UniProt Q16513); type: functional
[19] = molecular target: Activated CDC42 kinase 1 (Homo sapiens, UniProt Q07912); experiment: Navigating the Kinome. Panel member name: ACK1; type: functional
[20] = molecular target: Mitogen-activated protein kinase 9 (Homo sapiens, UniProt P45984); type: functional;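 also: value from a kinome panel profiling assay, MAPK9 panel entry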
[21] = molecular target: Megakaryocyte-associated tyrosine-protein kinase (Homo sapiens, UniProt P42679); type: functional;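 also: affinity measured as one member of a kinase panel (Navigating the Kinome) against MATK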
[22] = molecular target: 3-phosphoinositide-dependent protein kinase 1 (Homo sapiens, UniProt O15530); type: functional;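 also: value comes from the Navigating the Kinome panel, PDPK1 member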
[23] = molecular target: Cyclin-dependent kinase 1 (Homo sapiens, UniProt P06493); type: functional;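 also: Kinome-wide panel profiling, with the target listed as panel member CDC2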
[24] = molecular target: Dual specificity tyrosine-phosphorylation-regulated kinase 4 (Homo sapiens, UniProt Q9NR20); type: functional
[25] = molecular target: Tyrosine-protein kinase ITK/TSK (Homo sapiens, UniProt Q08881); type: functional;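 also: affinity for ITK measured as one member of a broad kinase panel profiling binding across the kinome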
[26] = molecular target: Dual specificity tyrosine-phosphorylation-regulated kinase 1B (Homo sapiens, UniProt Q9Y463); experiment: Navigating the Kinome. Panel member name: DYRK1B; type: functional
[27] = molecular target: Interleukin-1 receptor-associated kinase 4 (Homo sapiens, UniProt Q9NWZ3); type: functional
[28] = molecular target: Casein kinase I isoform delta (Homo sapiens, UniProt P48730); type: functional;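 also: measured as one member (CSNK1D) of a kinome panel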

Sequence of Mitogen-activated protein kinase 8 (P45983 whole entry): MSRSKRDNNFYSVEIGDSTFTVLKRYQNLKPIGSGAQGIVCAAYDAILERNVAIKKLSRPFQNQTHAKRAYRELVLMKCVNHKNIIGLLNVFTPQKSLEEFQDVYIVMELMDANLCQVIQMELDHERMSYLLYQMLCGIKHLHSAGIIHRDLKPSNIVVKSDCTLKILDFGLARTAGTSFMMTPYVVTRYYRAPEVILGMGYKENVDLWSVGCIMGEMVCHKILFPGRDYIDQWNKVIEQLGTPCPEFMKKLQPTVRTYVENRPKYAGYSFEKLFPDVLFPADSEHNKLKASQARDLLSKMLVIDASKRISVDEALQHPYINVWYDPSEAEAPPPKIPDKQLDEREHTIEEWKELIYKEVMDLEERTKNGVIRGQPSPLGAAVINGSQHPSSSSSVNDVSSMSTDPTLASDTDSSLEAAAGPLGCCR
Sequence of Proto-oncogene tyrosine-protein kinase Src (P12931 2-536 limits assumed): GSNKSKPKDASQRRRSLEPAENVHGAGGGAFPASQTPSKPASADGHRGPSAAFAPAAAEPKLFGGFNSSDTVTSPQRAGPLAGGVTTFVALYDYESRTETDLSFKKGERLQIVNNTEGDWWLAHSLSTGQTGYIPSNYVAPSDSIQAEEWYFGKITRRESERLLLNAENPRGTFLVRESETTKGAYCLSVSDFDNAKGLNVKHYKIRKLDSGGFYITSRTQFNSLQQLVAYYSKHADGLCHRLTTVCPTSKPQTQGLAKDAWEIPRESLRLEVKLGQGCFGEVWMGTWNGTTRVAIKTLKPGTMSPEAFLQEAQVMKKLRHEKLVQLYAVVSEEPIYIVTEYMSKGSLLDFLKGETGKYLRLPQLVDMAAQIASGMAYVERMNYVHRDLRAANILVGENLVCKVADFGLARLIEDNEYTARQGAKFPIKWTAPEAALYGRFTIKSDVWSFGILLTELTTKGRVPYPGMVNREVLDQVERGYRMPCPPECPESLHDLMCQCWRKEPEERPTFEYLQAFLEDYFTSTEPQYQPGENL
Sequence of Interleukin-1 receptor-associated kinase 1 (P51617 whole entry): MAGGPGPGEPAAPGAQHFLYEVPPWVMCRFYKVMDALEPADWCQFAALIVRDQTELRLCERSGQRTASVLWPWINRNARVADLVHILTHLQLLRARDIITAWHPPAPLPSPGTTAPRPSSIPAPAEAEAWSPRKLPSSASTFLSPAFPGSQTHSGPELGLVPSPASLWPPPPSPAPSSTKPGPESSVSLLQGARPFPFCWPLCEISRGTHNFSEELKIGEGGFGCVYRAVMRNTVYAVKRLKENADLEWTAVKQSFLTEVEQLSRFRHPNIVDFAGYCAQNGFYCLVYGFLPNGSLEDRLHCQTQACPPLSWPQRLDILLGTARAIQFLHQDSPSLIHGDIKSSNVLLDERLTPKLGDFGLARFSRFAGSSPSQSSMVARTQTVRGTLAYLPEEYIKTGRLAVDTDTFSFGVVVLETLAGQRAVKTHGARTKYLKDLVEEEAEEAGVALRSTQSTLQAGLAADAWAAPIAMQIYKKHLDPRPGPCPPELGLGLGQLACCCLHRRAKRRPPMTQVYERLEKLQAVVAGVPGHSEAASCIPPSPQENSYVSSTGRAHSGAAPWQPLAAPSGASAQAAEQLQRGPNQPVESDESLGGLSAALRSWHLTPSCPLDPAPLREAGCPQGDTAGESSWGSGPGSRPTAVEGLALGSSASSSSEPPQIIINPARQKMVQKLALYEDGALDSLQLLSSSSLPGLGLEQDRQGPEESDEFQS
Sequence of Protein kinase C iota type (P41743 whole entry): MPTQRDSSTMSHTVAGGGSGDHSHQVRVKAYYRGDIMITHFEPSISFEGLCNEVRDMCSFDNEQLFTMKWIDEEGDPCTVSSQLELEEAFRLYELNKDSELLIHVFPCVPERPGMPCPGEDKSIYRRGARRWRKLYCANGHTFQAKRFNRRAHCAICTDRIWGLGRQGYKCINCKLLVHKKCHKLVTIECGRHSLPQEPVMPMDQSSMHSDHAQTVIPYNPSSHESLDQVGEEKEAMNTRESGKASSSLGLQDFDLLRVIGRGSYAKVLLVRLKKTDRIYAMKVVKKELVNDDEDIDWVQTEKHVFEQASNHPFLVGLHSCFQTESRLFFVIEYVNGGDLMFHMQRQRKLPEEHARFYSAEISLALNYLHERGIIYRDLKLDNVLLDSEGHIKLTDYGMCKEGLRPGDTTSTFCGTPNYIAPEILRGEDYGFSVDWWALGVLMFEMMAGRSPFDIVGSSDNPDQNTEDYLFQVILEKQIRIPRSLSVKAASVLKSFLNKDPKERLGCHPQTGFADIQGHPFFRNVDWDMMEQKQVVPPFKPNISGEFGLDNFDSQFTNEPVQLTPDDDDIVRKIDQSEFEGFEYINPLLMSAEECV
Sequence of Homeodomain-interacting protein kinase 4 (Q8NE63 whole entry, the tested form may be a part): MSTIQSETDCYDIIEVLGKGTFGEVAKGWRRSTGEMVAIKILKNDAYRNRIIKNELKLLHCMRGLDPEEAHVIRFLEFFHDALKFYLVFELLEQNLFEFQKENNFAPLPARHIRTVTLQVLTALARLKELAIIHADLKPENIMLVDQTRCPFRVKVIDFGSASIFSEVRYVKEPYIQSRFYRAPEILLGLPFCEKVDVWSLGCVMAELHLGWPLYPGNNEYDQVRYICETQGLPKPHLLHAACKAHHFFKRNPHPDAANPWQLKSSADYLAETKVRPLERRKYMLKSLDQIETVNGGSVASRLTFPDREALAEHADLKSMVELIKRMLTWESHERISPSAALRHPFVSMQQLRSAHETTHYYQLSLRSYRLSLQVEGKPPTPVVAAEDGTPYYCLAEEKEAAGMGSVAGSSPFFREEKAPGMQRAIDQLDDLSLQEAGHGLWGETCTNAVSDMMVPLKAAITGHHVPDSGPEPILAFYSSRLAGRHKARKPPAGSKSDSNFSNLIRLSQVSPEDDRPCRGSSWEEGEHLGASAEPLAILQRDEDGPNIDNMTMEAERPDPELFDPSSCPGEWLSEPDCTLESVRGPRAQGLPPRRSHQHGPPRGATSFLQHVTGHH
Sequence of Megakaryocyte-associated tyrosine-protein kinase (P42679 whole entry): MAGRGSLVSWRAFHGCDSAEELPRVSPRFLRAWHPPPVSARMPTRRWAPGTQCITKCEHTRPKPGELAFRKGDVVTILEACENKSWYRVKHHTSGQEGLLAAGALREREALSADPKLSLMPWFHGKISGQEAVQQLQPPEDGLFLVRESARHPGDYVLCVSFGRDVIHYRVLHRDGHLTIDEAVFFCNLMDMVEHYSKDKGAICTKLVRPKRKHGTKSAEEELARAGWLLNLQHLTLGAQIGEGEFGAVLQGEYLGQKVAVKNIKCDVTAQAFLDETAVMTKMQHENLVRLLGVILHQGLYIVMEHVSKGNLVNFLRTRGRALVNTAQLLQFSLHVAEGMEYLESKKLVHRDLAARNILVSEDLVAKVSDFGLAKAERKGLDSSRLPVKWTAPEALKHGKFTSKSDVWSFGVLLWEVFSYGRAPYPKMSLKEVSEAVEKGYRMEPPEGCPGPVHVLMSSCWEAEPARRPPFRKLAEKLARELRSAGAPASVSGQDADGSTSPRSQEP
Sequence of STE20-like serine/threonine-protein kinase (Q9H2G2 whole entry): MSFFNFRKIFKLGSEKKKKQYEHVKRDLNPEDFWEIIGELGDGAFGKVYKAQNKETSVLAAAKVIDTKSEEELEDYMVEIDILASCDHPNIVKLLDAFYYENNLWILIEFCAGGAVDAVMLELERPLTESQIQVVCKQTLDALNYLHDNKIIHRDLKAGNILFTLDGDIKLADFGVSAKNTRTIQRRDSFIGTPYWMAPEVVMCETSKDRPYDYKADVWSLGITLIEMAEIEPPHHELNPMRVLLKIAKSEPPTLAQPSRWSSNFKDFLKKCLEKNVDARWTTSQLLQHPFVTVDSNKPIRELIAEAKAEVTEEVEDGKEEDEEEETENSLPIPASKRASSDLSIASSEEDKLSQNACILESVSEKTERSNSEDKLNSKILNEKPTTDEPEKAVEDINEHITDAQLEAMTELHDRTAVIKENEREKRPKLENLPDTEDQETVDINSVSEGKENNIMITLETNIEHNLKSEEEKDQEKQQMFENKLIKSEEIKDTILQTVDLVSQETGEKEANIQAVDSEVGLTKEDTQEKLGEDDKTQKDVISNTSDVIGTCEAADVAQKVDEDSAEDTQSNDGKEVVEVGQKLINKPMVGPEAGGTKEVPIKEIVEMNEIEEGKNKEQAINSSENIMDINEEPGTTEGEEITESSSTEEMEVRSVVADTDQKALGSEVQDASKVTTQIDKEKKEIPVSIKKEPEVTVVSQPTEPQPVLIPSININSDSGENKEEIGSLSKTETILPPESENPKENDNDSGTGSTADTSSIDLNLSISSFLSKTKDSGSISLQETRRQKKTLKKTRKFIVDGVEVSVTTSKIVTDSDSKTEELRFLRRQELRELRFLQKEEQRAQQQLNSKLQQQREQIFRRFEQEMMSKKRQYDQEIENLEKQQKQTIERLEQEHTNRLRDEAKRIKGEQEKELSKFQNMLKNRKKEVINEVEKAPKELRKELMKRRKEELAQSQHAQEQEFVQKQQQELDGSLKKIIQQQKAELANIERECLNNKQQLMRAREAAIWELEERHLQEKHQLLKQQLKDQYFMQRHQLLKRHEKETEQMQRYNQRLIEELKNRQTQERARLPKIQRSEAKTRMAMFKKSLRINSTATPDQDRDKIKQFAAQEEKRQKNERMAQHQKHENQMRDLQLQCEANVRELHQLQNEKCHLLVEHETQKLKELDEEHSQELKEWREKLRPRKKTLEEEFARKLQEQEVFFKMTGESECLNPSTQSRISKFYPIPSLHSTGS
Sequence of Cyclin-dependent kinase 9 (P50750 whole entry): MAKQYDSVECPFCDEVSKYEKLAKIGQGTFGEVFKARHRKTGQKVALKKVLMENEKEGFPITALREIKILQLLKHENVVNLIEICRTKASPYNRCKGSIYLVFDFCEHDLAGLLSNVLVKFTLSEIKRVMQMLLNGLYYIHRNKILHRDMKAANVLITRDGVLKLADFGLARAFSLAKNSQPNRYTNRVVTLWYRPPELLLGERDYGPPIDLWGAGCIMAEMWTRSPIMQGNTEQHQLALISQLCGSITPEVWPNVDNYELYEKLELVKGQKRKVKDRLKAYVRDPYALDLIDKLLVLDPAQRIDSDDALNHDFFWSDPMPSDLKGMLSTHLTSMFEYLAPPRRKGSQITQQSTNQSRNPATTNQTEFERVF

Question: Which AC50 [1] does the source give for `CCCn1nc([N+](=O)[O-])c(C(C#N)c2nc3ccccc3s2)c(Cl)c1=O` (stereo not drawn) here?
Answer: 4720 nM (active)

Question: What about the IC50 [2] of the same compound?
Answer: 24700 nM (active)

Question: `NCCCn1cc(-c2cc(-c3cc4ccccc4s3)c3[nH]ncc3c2)c2nc(N)ncc21` was tested. Which Ki [3] did it give?
Answer: 3.16 nM (active)

Question: What about the Ki [4] of the same compound?
Answer: 3160 nM (active)

Question: What about the Ki [5] of the same compound?
Answer: > 2000 nM (inactive)

Question: What about the Ki [6] of the same compound?
Answer: > 2510 nM (inactive)

Question: What about the Ki [7] of the same compound?
Answer: 251 nM (active)

Question: And the Ki [8]?
Answer: 20 nM (active)

Question: What about the Ki [9] of the same compound?
Answer: 1260 nM (active)

Question: What about the Ki [10] of the same compound?
Answer: 3.16 nM (active)

Question: What about the Ki [11] of the same compound?
Answer: 398 nM (active)

Question: And the Ki [12]?
Answer: 501 nM (active)

Question: What about the Ki [13] of the same compound?
Answer: 1260 nM (active)

Question: What about the Ki [14] of the same compound?
Answer: 126 nM (active)

Question: And the Ki [15]?
Answer: > 1580 nM (inactive)

Question: And the Ki [16]?
Answer: 501 nM (active)

Question: And the Ki [17]?
Answer: > 1580 nM (inactive)

Question: What about the Ki [18] of the same compound?
Answer: 316 nM (active)

Question: And the Ki [19]?
Answer: > 3980 nM (inactive)

Question: What about the Ki [20] of the same compound?
Answer: > 2000 nM (inactive)

Question: What about the Ki [21] of the same compound?
Answer: > 2000 nM (inactive)

Question: And the Ki [22]?
Answer: 1.58 nM (active)

Question: And the Ki [23]?
Answer: 31.6 nM (active)

Question: And the Ki [24]?
Answer: 794 nM (active)

Question: And the Ki [25]?
Answer: > 1580 nM (inactive)

Question: What about the Ki [26] of the same compound?
Answer: 631 nM (active)

Question: And the Ki [27]?
Answer: 7940 nM (active)

Question: What about the Ki [28] of the same compound?
Answer: 126 nM (active)

Source: ChEMBL document CHEMBL1201862, “PubChem BioAssay data set” (2004)
